Test results published in ChEMBL document CHEMBL1667744, “Structure--activity relationship studies of 1-(4-chloro-2,5-dimethoxyphenyl)-3-(3-propoxypropyl)thiourea, a non-nucleoside reverse transcriptase inhibitor of human immunodeficiency virus type-1” (Eur J Med Chem, 2011).

Test system: not listed separately
Test: Cytotoxicity against HIV1 pseudovirus infected in human B cells
Format: cell-based
Details: b cell

Structure (SMILES)	Activity
CCCSCCCNC(=O)Nc1cc(OC)c(Cl)cc1OC	Toxic
CCCN(CCCNC(=S)Nc1cc(OC)c(Cl)cc1OC)C(=O)OC(C)(C)C	Toxic

Test system: Human immunodeficiency virus 1
Test: Antiviral activity against HIV1 pseudovirus infected in human B cell assessed as inhibition of infection
Format: functional, organism-based
Details: Human immunodeficiency virus 1, B

IC50 [nM]	Structure (SMILES)
1.1	CCCOC(=O)CCCNC(=S)Nc1cc(OC)c(Cl)cc1OC
168	CCCOCCCNC(=S)Nc1cc(OC)c(Cl)cc1OC

Test system: Human immunodeficiency virus 1
Test: Antiviral activity against HIV1 pseudovirus infected in human B cell assessed as inhibition of infection at 5 uM after 48 to 72 hrs by flow cytometry
Format: functional
Details: Human immunodeficiency virus 1, B

Structure (SMILES)	inhibition at 5 µM [%]
CCOC(=O)CCNC(=S)Nc1cc(OC)c(Cl)cc1OC	66
COc1cc(N=C(S)NCCCO)c(OC)cc1Cl	92
CCCCCCCNC(=O)Nc1cc(OC)c(Cl)cc1OC	89
CCCOCCCNC(=O)Nc1cc(OC)c(Cl)cc1OC	47
CCOC(=O)CCCNC(=O)Nc1cc(OC)c(Cl)cc1OC	65
CCC(=O)OCCCNC(=S)Nc1cc(OC)c(Cl)cc1OC	86
COC(=O)CCCNC(=O)Nc1cc(OC)c(Cl)cc1OC	87
CCOC(=O)CCCNC(=S)Nc1cc(OC)c(Cl)cc1OC	24
CCCNC(=O)CCCNC(=S)Nc1cc(OC)c(Cl)cc1OC	69
CCCSC(=O)CCCNC(=S)Nc1cc(OC)c(Cl)cc1OC	79
CCCOCCNC(=S)Nc1cc(OC)c(Cl)cc1OC	46
CCCCCCNC(=S)Nc1cc(OCC)c(Cl)cc1OCC	107
CCCCCCCNC(=S)Nc1cc(OCC)c(Cl)cc1OCC	69
CCCC(=O)OCCCNC(=S)Nc1cc(OC)c(Cl)cc1OC	65
CCCOC(=O)CCCNC(=S)Nc1cc(OC)c(Cl)cc1OC	17
COC(=O)CCNC(=S)Nc1cc(OC)c(Cl)cc1OC	56
COC(=O)CCCNC(=S)Nc1cc(OC)c(Cl)cc1OC	73

Structure (SMILES)	inhibition at 5 µM [%]
CCCNCCCNC(=S)Nc1cc(OC)c(Cl)cc1OC	83
CCCSCCCNC(=S)Nc1cc(OC)c(Cl)cc1OC	24
CCCCOC(=O)CCCNC(=S)Nc1cc(OC)c(Cl)cc1OC	29
COc1cc(NC(=S)NCCCOC(C)=O)c(OC)cc1Cl	123
COc1cc(NC(=S)NCCC(=O)O)c(OC)cc1Cl	91
CCC[S+]([O-])CCCNC(=S)Nc1cc(OC)c(Cl)cc1OC (stereo not drawn)	91
COc1cc(NC(=S)N2CCCC2=O)c(OC)cc1Cl	104
COCCCNC(=S)Nc1cc(OC)c(Cl)cc1OC	105
CCCCCCNC(=S)Nc1cc(OC)c(Cl)cc1OC	87
CCCOCCCNC(=S)Nc1cc(OCC)c(Cl)cc1OCC	58
CCCOCCCNC(=S)Nc1cc(OCCC)c(Cl)cc1OCCC	107
CCCOC(=O)CCNC(=S)Nc1cc(OC)c(Cl)cc1OC	66
CCCCCCCNC(=S)Nc1cc(OC)c(Cl)cc1OC	87
CCCC(=O)OCCCN/C(=N/c1cc(OC)c(Cl)cc1OC)SC(=O)CCC	87
CCOCCCNC(=S)Nc1cc(OC)c(Cl)cc1OC	66
CCCCOC(=O)CCNC(=S)Nc1cc(OC)c(Cl)cc1OC	43
CCCOCCCNC(=S)Nc1cc(OC)c([N+](=O)[O-])cc1OC	107
